Patent US20180325914A1, “INCREASING STORAGE OF VITAMIN A, VITAMIN D AND/OR LIPIDS” (Salk Institute for Biological Studies, priority 2014, published 2018)

Columns and labels:
[1] = test system: pro-fibrotic gene expression (COL1A1) in LX-2 cells; assay: qRT-PCR of pro-fibrotic gene expression in LX-2 cells; details: JQ1 500 nM, 16 hr vs DMSO
primary murine HSCs = assay: Immunocytochemistry (Acta2) of HSC activation into myofibroblasts; assay type: cell-based, mouse; details: day 6, JQ1 500 nM
Procedure: Primary murine HSCs were seeded onto chamber slides (Nunc). […] Media was aspirated, cells were washed twice with PBS (Gibco) and fixed in 10% buffered formalin at room temperature for 15 minutes. Fixative was removed and cells were washed three times with PBS. The slides were then blocked with 3% BSA and incubated with rabbit anti-ACTA2 antibody (at 1:100 dilution; Abcam) overnight at 4° C. After washing, the slides were incubated for 1 hour with Alexa Fluor546-labeled donkey anti-rabbit IgG antibody (at 1:200 dilution; Invitrogen). Finally, the slides were analyzed for fluorescence using an all-in-one type fluorescent microscope (BioZero BZ-9000; Keyence, Osaka, Japan). Nuclear counterstaining was performed using DAPI (Vector).

primary HSCs [2] = assay: Cell viability assay (CellTiter Glo), primary HSCs; assay type: cell-based, mouse; details: dose-dependent manner
Procedure: Primary HSCs or LX-2 cells were seeded onto 96-well tissue culture plates.

[3] = test system: BRD2, BRD3, BRD4 (BETs) occupancy on chromatin; assay type: cell-based, human; details: LX-2 cells; 500 nM, 16 hr
Procedure: Cells were then harvested for ChIP assay. The experimental procedure for ChIP was as previously described.
The procedure was as previously described^5,31. Briefly, short DNA reads were demultiplexed using the Illumina CASAVA v1.8.2. […] Only tags that map uniquely to the genome were considered for further analysis. Subsequent peak calling and motif analysis were conducted using HOMER, a software suite for ChIP-Seq analysis. The methods for HOMER, which are described below, have been implemented and are freely available on the internet (biowhat.ucsd.edu/homer/). One tag from each unique position was considered to eliminate peaks resulting from clonal amplification of fragments during the ChIP-Seq protocol. Peaks were identified by searching for clusters of tags within a sliding 200 bp window, requiring adjacent clusters to be at least 1 kb away from each other. The threshold for the number of tags that determine a valid peak was selected for a false discovery rate of <0.01, as empirically determined by repeating the peak finding procedure using randomized tag positions. […] Peaks are annotated to gene products by identifying the nearest RefSeq transcriptional start site. Visualization of ChIP-Seq results was achieved by uploading custom tracks onto the UCSC genome browser.
BETs are chromatin regulators^7.

C57BL/6J mice [4] = assay: CCl4 model of liver fibrosis, therapeutic study; assay type: in vivo, mouse; details: JQ1 50 mg/kg IP
Procedure: (§1) The animals were terminated 72 hours after the final CCl4 injection and whole livers were collected for histological, cytological, biochemical and molecular analyses.
5 μm sections of formalin-fixed liver were stained following standard hematoxylin-eosin (H&E) and Sirius Red methods and reviewed by a pathologist who was blinded to the experimental conditions. Fibrosis was scored using the Ishak modified histological activity index (HAI) scoring system. Liver fibrosis was also quantified using Image J software on 10 non-contiguous Sirius Red stained sections. […] fibrosis was quantified using hydroxyproline assay. All images were obtained using a high-resolution Leica DFC420 digital camera mounted on an Olympus microscope equipped with ×4/0.13, ×10/0.30, ×20/0.50 and ×40/0.75 UplanFL N plan objective lenses and processed with the Leica Application Suite. Tissue hydroxyproline content was measured using a kit from Biovision (K555-100).
Liver samples were deparaffinized and rehydrated in PBS. Following antigen retrieval with the target retrieval solution (Dako, Glostrup, Denmark), endogenous peroxidase activity was blocked by incubation with 0.3% hydrogen peroxide. […]
Therefore, the ability of JQ1 to prevent progression of ongoing liver fibrosis was determined. […]

[5] = test system: Pancreatic cancer cell lines (AsPc1, MIAPaCa2, PancT and P53 2.1.1); assay: Viability of pancreatic cancer cell lines in astromal or stromal hydrogels (Cell TiterGlo); assay type: cell-based; details: 500 nM JQ1, 72 hours, astromal or stromal culture conditions
Description: Pancreatic cancer cell lines (AsPc1, MIAPaCa2, PancT and P53 2.1.1) were embedded in HyStem®-C hydrogels (ESI-BIO) at a concentration of 5×10^5 cells/ml. For astromal hydrogels, Glycosil® and Extralink™ components were resuspended in degassed H2O per manufacturer's procotol, and Glycosil®+degassed H2O+Extralink™ were combined in a 1:1:1 ratio. For the stromal hydrogels, Glycosil®, Gelin-S® (denatured collagens), and Extralink™ components were resuspended in degassed H2O per manufacturer's procotol, and Glycosil®+Gelin-S®+Extralink™ were combined in a 1:1:1 ratio. Pancreatic cancer cells were resuspended in the hydrogels and seeded into 96-well plates, 100 μl/well (5×10^4 cells/well). Triplicate wells were seeded for each condition to be tested. After hydrogel polymerization was evident (30-45 minutes), DMEM+10% FBS was added to astromal wells and conditioned media from cancer-associated PSCs was added to stromal wells. Conditioned media was prepared by growing primary cancer-associated PSCs (grown out of human pancreatic tumors) to confluency, changing to fresh DMEM+10% FBS, then collecting the media after 48 hours and passing through a 0.45 um filter to clear debris. […] Viability assays were performed after 72 hours using the Cell TiterGlo reagent (Promega) according to the manufacturer's instructions, but with a 45 minute incubation to ensure efficient lysis in 3D cultures.

primary HSCs [6] = assay: qRT-PCR gene expression in primary murine HSCs; assay type: cell-based, mouse; details: JQ1 500 nM, RT-qPCR
C57BL/6J mice [7] = assay: Serum alanine aminotransferase (ALT) assay in CCl4 model; assay type: in vivo, mouse; details: preventive CCl4 model; JQ1 50 mg/kg IP
Procedure: as §1
The ALT activity in mice serum was measured using a kit from Thermo Scientific (TR71121).

Compound: Cc1sc2c(c1C)C(c1ccc(Cl)cc1)=N[C@@H](CC(=O)OC(C)(C)C)c1nnc(C)n1-2 [JQ1, (S)-tert-butyl 2-(4-(4-chlorophenyl)-2,3,9-trimethyl-6H-thieno[3,2-f][1,2,4]triazolo[4,3-a][1,4]diazepin-6-yl)acetate]
- repression of COL1A1 [1]: 4.5 fold
- HSCs transdifferentiation into myofibroblasts, phenotypically (morphology, Acta2 distribution) (primary murine HSCs): dramatically arrested
- anti-proliferative activity against activated HSCs (primary HSCs [2]): significant anti-proliferative activity
- BET occupancy at the COL1A1 enhancer locus (ChIP) [3]: significantly diminished
- PAF1 and CDK9 (elongation cofactors) on chromatin [3]: displaced
- occupancy of BETs on chromatin (ChIP-Seq) [3]: dramatically reduces
- recruitment of serine 2 phosphorylated form (S2p) of RNA Pol II [3]: specific decrease
- sensitivity of BRD4 occupancy on super-enhancer regions to reduction, versus control enhancer regions [3]: more sensitive
- serine 5 Pol II phospho-form (S5p) [3]: little change
- progression of liver fibrosis (histological scoring, Sirius red, hydroxyproline, marker gene expression) (C57BL/6J mice [4]; CCl4 three weeks, then CCl4/JQ1 co-treatment for three weeks): blocked the progression
- CCl4-induced HSC activation (quantitative Acta2 immunohistochemistry) (C57BL/6J mice [4]; chronic CCl4): dramatically reduced
- growth of pancreatic cancer cell lines in vitro [5]: significantly reduced
- Ccnd2 and Myc expression (primary HSCs [6]): without perturbing
- induction of Pdgfrb and Ccnd1 during HSC activation (primary HSCs [6]): disrupted induction
- liver injury due to CCl4 assessed by serum ALT (C57BL/6J mice [7]): not significantly impacted
